{"source": "paper PMC6017121", "about": "“New Thiazoline-Tetralin Derivatives and Biological Activity Evaluation” (Molecules : A Journal of Synthetic Chemistry and Natural …, 2018)", "key": {"[1]": {"test_system": "human breast adenocarcinoma cell line (MCF-7)", "assay": "MTT cytotoxicity assay on MCF-7", "assay_type": "cell-based", "experimental": "(§1) This is a colorimetric assay that measures the reduction of 3-(4,5-dimethylthiazol-2-yl)-2,4,diphenyltetrazolium bromide (MTT) by mitochondria. All final compounds were tested against human breast adenocarcinoma cell line (MCF-7), human lung carcinoma cell line (A549) and mouse embryooblast cell line (NIH/3T3) to determine their cytotoxic profile. Cancer cells were cultured in RPMI medium (Hyclone, Thermo Scientific, Waltham, MA, USA) at 37 °C in a humidified atmosphere of 95% air and 5% CO2. The studied cells were situated at 2 × 10^4 cells into each well of 96-well microtiter tissue culture plates (Nunc, Denmark) and incubated for 24 h. After that, test compounds were dissolved in DMSO and added to culture wells at varying concentrations (85–1000 µM). After a 24 h incubating period, […] MTT solution (5 mg/mL MTT powder in PBS) was added to each well and the cells were incubated for 4 h at 37 °C. The purple formazan crystals produced were dissolved in DMSO and the absorbance was read by ELISA reader (OD570 nm). The percent values of cell proliferations were calculated relative to controls, whose cell proliferations were accepted as 100% [47]."}, "A549 cells [2]": {"test_system": "A549 cells", "assay": "DNA synthesis inhibition (BrdU) on A549", "conditions": "Homo sapiens, A549, 4 h, read-out: DNA synthesis inhibition on A549 at IC50, IC50 concentration (4h 48.6 μM; cisplatin 108.3 μM)", "procedure": "The 5-bromo-2′-deoxy-uridine (BrdU) cell proliferation assay [48] was used to detect the proliferation of A549 and C6 cells. […] At the end of each day, the cells were labelled with 10 mL BrdU solution for 2 h and then fixed. Anti-BrdU-POD (100 mL) was added and incubated for 90 min. Finally, microtiter plates were washed with phosphate buffered saline (PBS) three times and the cells were incubated with substrate solution until the color was sufficient for photometric detection. […] The growth percentage was evaluated spectrophotometrically versus untreated controls with used cell viability of growth assay. Results for each spectrophotometrical measure were noticed as percent of growth inhibition. All experiments were done in triplicates.\nMean percent absorbance of untreated control cells were assumed 0%. […] Data points represent means for three independent wells ± SD. p < 0.05."}, "[3]": {"test_system": "mouse embryoblast cell line (NIH/3T3)", "assay": "MTT cytotoxicity assay on NIH/3T3 (healthy cells)", "assay_type": "cell-based", "conditions": "NIH3T3, 24 h incubation", "experimental": "as §1"}, "[4]": {"target": "butyrylcholinesterase (BuChE) (Homo sapiens, UniProt P06276)", "sequence (P06276 29-602)": "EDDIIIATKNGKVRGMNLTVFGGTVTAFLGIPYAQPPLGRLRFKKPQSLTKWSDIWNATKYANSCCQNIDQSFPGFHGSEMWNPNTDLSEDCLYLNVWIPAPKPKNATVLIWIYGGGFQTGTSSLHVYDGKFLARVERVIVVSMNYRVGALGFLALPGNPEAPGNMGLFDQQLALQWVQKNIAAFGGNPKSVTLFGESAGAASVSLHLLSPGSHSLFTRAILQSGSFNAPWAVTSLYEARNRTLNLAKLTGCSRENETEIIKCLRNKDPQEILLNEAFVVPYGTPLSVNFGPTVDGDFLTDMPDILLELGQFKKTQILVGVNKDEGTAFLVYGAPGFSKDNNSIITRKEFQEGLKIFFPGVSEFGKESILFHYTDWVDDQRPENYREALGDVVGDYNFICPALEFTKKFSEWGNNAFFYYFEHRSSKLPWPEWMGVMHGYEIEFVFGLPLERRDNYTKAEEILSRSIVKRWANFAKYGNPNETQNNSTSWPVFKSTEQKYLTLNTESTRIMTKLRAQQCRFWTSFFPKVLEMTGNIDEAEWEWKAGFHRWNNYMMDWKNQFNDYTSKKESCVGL", "assay": "biochemical", "conditions": "80 µg/mL (~160 µM)", "experimental": "(§2) In order to determine the acetyl- and butyrylcholinesterase enzyme inhibitions, experiments were carried out by making some changes in the method developed by Ellman. Samples were prepared by dissolving in the appropriate solvent. Adding 20 μL enzyme solution (AChE or BuChE, 1 U/mL) and 10 μL sample solution to 2.4 mL buffer solution and it was incubated for 15 min at 37 °C. After incubation, 50 μL DTNB and 75 mM ATCI solution or 20 μL of 25 mM BTCI solution were added and allowed the mixture to incubate at room temperature for 30 min. For the control group, only 10 μL of solvent was added instead of the sample solution provided all protocols are the same. […] Experiments were run in triplicate. The inhibition fractions of AChE […] BuChE enzymes were calculated using the following equation:I(%) = 100 − ([…]) × 100"}, "[5]": {"target": "acetylcholinesterase (AChE) (Homo sapiens, UniProt P22303)", "sequence (P22303 32-614, species assumed)": "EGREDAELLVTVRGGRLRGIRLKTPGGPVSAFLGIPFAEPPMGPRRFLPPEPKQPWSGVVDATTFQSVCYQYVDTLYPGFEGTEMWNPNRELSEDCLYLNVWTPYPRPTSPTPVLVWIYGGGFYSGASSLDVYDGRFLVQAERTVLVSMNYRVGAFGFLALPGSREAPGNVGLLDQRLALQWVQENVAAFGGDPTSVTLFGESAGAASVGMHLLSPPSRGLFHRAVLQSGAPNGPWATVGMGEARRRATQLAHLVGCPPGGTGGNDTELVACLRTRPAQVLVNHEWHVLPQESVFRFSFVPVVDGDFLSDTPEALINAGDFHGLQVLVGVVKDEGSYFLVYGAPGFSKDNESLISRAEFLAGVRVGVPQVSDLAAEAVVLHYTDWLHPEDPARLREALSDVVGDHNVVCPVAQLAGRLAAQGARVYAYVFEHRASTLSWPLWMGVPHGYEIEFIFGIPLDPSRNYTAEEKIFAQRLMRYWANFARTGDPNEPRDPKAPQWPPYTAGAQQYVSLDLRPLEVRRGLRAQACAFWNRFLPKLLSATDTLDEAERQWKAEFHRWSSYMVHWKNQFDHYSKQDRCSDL", "assay": "biochemical", "conditions": "80 µg/mL (~160 µM)", "experimental": "as §2"}, "[6]": {"test_system": "human lung carcinoma cell line (A549)", "assay": "MTT cytotoxicity assay on A549", "assay_type": "cell-based", "experimental": "as §1"}, "A549 cells [7]": {"test_system": "A549 cells", "assay": "Annexin V-FITC/propidium iodide flow cytometry on A549", "assay_type": "cell-based, human", "conditions": "A549 cell line, IC50 concentration", "experimental": "Evaluation of apoptosis was carried out through the Annexin V-FITC Apoptosis Detection Kit from BD, Pharmingen, according to the manufacturer’s instruction. […] Then cells were rinsed with cold water twice and resuspended in Annexin V-FITC binding buffer at a concentration of 1 × 10^6 cells/mL. […] of Annexin V-FITC was used to stain the cells. After 15 min of incubation at 25 °C, the cell suspension was centrifugated for 5 min and cells were resuspended in Annexin V-FITC binding buffer. Propidium iodide ([…]) was added and the tubes were situated on ice and away from light. The fluorescence was measured using a flow cytometer. The results were analyzed by using FCSExpress software and represented as percentage of normal and apoptotic cells at various stages. […] The four areas in the diagrams stand for necrotic cells (Q1, positive for PI and negative for annexin/FITC, left square on the top), live cells (Q3, negative for annexin and PI, left square at the bottom), late apoptotic or necrotic cells (Q2, positive for annexin and PI, right square on the top) and apoptotic cells (Q4, negative for PI and positive for annexin, right square at the bottom), respectively. The experiment was repeated three times."}}, "data": [{"smiles": "O=C(COc1ccc2c(c1)CCCC2)N/N=c1\\scc(-c2ccc(F)cc2)n1-c1ccccc1", "note": "[Compound 4h, N′-[3-Phenyl-4-(4-florophenyl)thiazole-2(3H)-ylidene]-2-[(5,6,7,8-tetrahydronaphthalen-2-yl)oxy]acetohydrazide]", "values": [{"measurement": "IC50", "setting": "[1]; Homo sapiens, MCF7, MTT, 24 h incubation", "value": "243 ± 14.9", "unit": "µM"}, {"measurement": "SI MCF-7 (selectivity index)", "setting": "[1]; NIH/3T3 versus MCF-7", "value": 1.0}, {"measurement": "inhibition at 48.6 µM", "setting": "A549 cells [2]", "value": 50.8, "unit": "%"}, {"measurement": "IC50", "setting": "[3]", "value": "247 ± 12.2", "unit": "µM"}, {"measurement": "inhibition at 80 µg/mL", "setting": "[4]", "value": "< 0", "unit": "%"}, {"measurement": "inhibition at 160 µM", "setting": "[5]", "value": "49.9 ± 1.44", "unit": "%"}, {"measurement": "IC50", "setting": "[6]; Homo sapiens, A549, MTT, 24 h incubation", "value": "48.6 ± 6", "unit": "µM"}, {"measurement": "SI A549 (selectivity index)", "setting": "[6]; NIH/3T3 versus A549", "value": 5.1}, {"measurement": "apoptosis (early + late apoptotic cell percentage) A549", "setting": "A549 cells [7]", "value": "over 50%"}, {"measurement": "% Early Apoptotic", "setting": "A549 cells [7]; 24 h", "value": 23.7, "unit": "%"}, {"measurement": "% Late Apoptotic", "setting": "A549 cells [7]; 24 h", "value": 26.4, "unit": "%"}, {"measurement": "% Necrotic", "setting": "A549 cells [7]; 24 h", "value": 4.0, "unit": "%"}, {"measurement": "% Viable", "setting": "A549 cells [7]; 24 h", "value": 45.9, "unit": "%"}]}]}
